Earlier results on one compound are cited in paper PMC2885594 (Current Chemical Genomics, 2010).

SMILES strings stand for the structures.

The data set concerns TPH1. To be noted: ref [30].

`N[C@@H](Cc1c[nH]c2ccc(O)cc12)C(=O)O` [5-HTP]: the “mechanism of inhibition versus phenylalanine” value is reported as “competitive” and the “mechanism of inhibition versus pterin” value is reported as “uncompetitive”.
